From BindingDB's records for doi:10.1021/jm1012193 (University of Bonn, 2012) come the findings set out here.

Structures are written as SMILES.

The assay has as its target T1, P2X purinoceptor 2 (Rattus norvegicus, UniProt P49653).
T1 sequence (P49653 whole entry): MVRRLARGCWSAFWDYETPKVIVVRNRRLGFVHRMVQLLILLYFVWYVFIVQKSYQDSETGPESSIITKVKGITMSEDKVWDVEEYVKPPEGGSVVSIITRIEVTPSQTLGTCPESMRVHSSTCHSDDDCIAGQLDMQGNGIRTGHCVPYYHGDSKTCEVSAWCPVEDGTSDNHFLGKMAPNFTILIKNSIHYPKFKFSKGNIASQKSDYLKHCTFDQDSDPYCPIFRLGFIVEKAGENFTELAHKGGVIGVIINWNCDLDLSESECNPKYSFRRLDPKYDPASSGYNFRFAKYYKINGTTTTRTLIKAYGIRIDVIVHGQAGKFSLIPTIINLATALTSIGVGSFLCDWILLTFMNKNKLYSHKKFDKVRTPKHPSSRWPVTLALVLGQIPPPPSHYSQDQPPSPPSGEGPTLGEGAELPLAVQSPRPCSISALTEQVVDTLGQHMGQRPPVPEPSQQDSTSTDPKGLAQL
Put plainly: Antagonist activity against rat […] receptor expressed in Xenopus laevis oocyte assessed as inhibition of alpha, beta-meATP-induced inward current by two-electrode voltage-clamp electrophysiology. On the technique in general: Two-electrode voltage clamp holds a large cell at a set potential and records current.

Regarding `Nc1ncnc2c1ncn2C1OC(COP(=O)(O)OP(=O)(O)OP(=O)(O)O)C2OC3(OC21)C([N+](=O)[O-])=CC([N+](=O)[O-])=CC3=[N+]([O-])[O-]` (stereo not drawn) [sodium(3a'R,4'R,6'R,6a'R)-4'-(6-amino-9H-purin-9-yl)-2,6-dinitro-6'-((oxido(oxido(phosphonatooxy)phosphoryloxy)phosphoryloxy)methyl)-3a',4',6',6a'-tetrahydrospiro[cyclohexa[2,5]diene-1,2'-furo[3,4-d][1,3]dioxole]-4-ylideneazinate], the 50% inhibitory concentration (IC50) amounted to 4 µM.

In general, IC50 refers to the concentration needed to halve the response being measured.
